# Legend:
# [1] = Solubility to a non-aqueous solvent, Test Example 3; type: physicochemical; settings: 18° to 20° C.; for Solubility, Medium chain triglyceride: medium chain triglyceride (ODO)
# Protocol: A stirring magnet was put into a 10 ml or 100 ml egg plant flask equipped with a stopper, and 50 mg of a test compound was introduced into this flask. Further, a suitable amount of a desired solvent was introduced thereinto, and the solubility was determined.
# P-388 leukemia [2] = experiment: Antitumour activity, Test Example 2 (intraperitoneally transplanted--intravenously injected); type: in vivo, BDF1 mouse; settings: 10 mg/kg (active ingredient mg/kg/day), i.v. from the tail, days 1 and 8; fatty emulsion (Formulation Example 10); saline control = 0%
# Protocol: 1×10^6 of P-388 leukemia cells per mouse were intraperitoneally transplanted to BDF1 mouse. Each formulation (formulated in accordance with the below-mentioned Formulation Example 10) was intravenously injected from the tail on days 1 and 8 after the transplantation.
# The increase life span (ILS, %) of each treated group was determined on such basis that the median survival time of a control group to which a physiolosical saline was administered was regarded to be 0% of increase life span (ILS). In the cases where Compounds No. 1 and No. 11 were administered at a dose (active ingredient mg/kg/day) of 10 mg/kg, ILS (%) was 46 and 27, respectively. (Note) * The increase life span was calculated in the
# same manner as in Test Example 1.
# P-388 leukemia [3] = experiment: Antitumour activity, Test Example 1 (intraperitoneally transplanted--intraperitoneally administered); type: in vivo, BDF1 mouse; settings: i.p., days 1 and 8, mortality observed 30 days, saline control = 0%; for ILS at 50 mg/kg: 50 mg/kg/day active ingredient; for ILS at 6.25 mg/kg: 6.25 mg/kg/day active ingredient; for ILS at 100 mg/kg: 100 mg/kg/day active ingredient
# Protocol: 1×10^6 of P-388 leukemia cells per mouse were intraperitoneally transplanted into BDF1 mouse. […] The increase life span of each group was determined on such basis that the medium survival time of a control group to which physiological saline was administered was regarded to be 0% of increase life span (ILS). […] | (Note) *Increase life span is calculated by the following equation: | Increase life span % (ILS) =- | [drawing 18]
# [4] = 12.5 mg/kg/day active ingredient
# [5] = Mus musculus, P388, ip, 720 h, 12.5 mg/kg/day active ingredient, read-out: Increase life span (ILS)
# [6] = Mus musculus, P388, ip, 720 h, 25 mg/kg/day active ingredient, read-out: Increase life span (ILS)
# [7] = Mus musculus, P388, ip, 720 h, read-out: Increase life span (ILS)
Compound,ILS at 12.5 mg/kg (P-388 leukemia [3]; [5]),ILS at 25 mg/kg (P-388 leukemia [3]; [6]),ILS at 50 mg/kg (P-388 leukemia [3]; [7]),other results
"Cc1cc(NC(=O)NC(=O)c2ccccc2N(C)C)ccc1Oc1ncc(Br)cn1 [Compound 1, N-[4-(5-bromo-2-pyrimidinyloxy)-3methylphenyl]-N'-[2-(dimethylamino)benzoyl]urea]",,,,"Solubility, Medium chain triglyceride [1]: 2.1-2.3%; Solubility, Soybean oil [1]: 0.46-0.49%; Increase life span (ILS) (P-388 leukemia [2]): 46%; Increase life span (ILS) (P-388 leukemia [3]; [4]): 126%; Increase life span (ILS) (P-388 leukemia [3]; 25 mg/kg/day active ingredient): 183%"
"Cc1cc(NC(=O)NC(=O)c2ccccc2N(C)C)ccc1Oc1ncc(Br)cn1.Cl [Compound 2, N-[4-(5-bromo-2-pyrimidinyloxy)-3methylphenyl]-N'-[2-(dimethylamino)benzoyl]urea hydrochloride]",,,,Increase life span (ILS) (P-388 leukemia [3]; [4]): 94%; Increase life span (ILS) (P-388 leukemia [3]; 25 mg/kg/day active ingredient): 206%
Cc1cc(NC(=O)NC(=O)c2c(F)cccc2N(C)C)ccc1Oc1ncc(Br)cn1 [Compound 3],50%,150%,,
CN(C)c1cccc(F)c1C(=O)NC(=O)Nc1ccc(Oc2ncc(Br)cn2)c(Cl)c1 [Compound 4],,,135%,
"CN(C)c1ccccc1C(=O)NC(=O)Nc1ccc(Oc2ncc(Br)cn2)c(C(F)(F)F)c1 [Compound 9, N-[4-(5-bromo-pyrimidinyloxy)-3-trifluoromethylphenyl]-N'-[2(dimethylamino)benzoyl]urea]",80%,,,
"CN(C)c1ccccc1C(=O)NC(=O)Nc1ccc(Oc2ncc(Cl)cn2)c(C(F)(F)F)c1 [Compound 10, N-[4-(5-chloro-2-pyrimidinyloxy)-3-trifluoromethylphenyl]-N'-[2-(dimethylamino)benzoyl]urea]",39%,,,
"Cc1cc(NC(=O)NC(=O)c2ccccc2N(C)C)ccc1Oc1ncc(Cl)cn1 [Compound 11, N-[4-(5-chloro-2-pyrimidinyloxy)-3methylphenyl]-N'-[2-(dimethylamino)benzoyl]urea]",,99%,132%,"Solubility, Medium chain triglyceride [1]: 1.5-1.8%; Solubility, Soybean oil [1]: 0.15-0.16%; Increase life span (ILS) (P-388 leukemia [2]): 27%"
CN(C)c1ccccc1C(=O)NC(=O)Nc1ccc(Oc2ncc(Br)cn2)c([N+](=O)[O-])c1 [Compound 13],,,27%,
"Nc1ccccc1C(=O)NC(=O)Nc1ccc(Oc2ncc(Br)cn2)c(Cl)c1 [Compound 26, N-(2-aminobenzoyl)-N'-[4-(5-bromo-2-pyrimidinyloxy)-3-chlorophenyl]urea]",93%,> 137%,,
"Cc1cc(NC(=O)NC(=O)c2ccccc2N)ccc1Oc1ncc(Br)cn1 [Compound 27, N-(2-aminobenzoyl)-N'-[4-(5-bromo-2-pyrimidinyloxy)-3-methylphenyl]urea]",126%,160%,,
CCN(CC)c1ccccc1C(=O)NC(=O)Nc1ccc(Oc2ncc(Br)cn2)c(C)c1 [Compound 33],,49%,,"Solubility, Soybean oil [1]: at least 13.6%"
"Cc1cc(NC(=O)NC(=O)c2ccccc2N2CCOCC2)ccc1Oc1ncc(Br)cn1 [Compound 34, N-[4-(5-bromo-2-pyrimidinyloxy)-3-methylphenyl]-N'-(2-morpholinobenzoyl)urea]",,,,ILS at 6.25 mg/kg (P-388 leukemia [3]; [7]): 49%
COc1cc(NC(=O)NC(=O)c2ccccc2N(C)C)ccc1Oc1ncc(Cl)cn1 [Compound 35],,,,"ILS at 100 mg/kg (P-388 leukemia [3]; [7]): 27%; ILS at 200 mg/kg (P-388 leukemia [3]; Mus musculus, P388, ip, 720 h, 200 mg/kg/day active ingredient, read-out: Increase life span (ILS)): 53%"
CN(C)c1ccccc1C(=O)NC(=O)Nc1ccc(Oc2ncc(Cl)cn2)c([N+](=O)[O-])c1 [Compound 36],,,,ILS at 100 mg/kg (P-388 leukemia [3]; [7]): 68%
"CC(=O)Nc1ccccc1C(=O)NC(=O)Nc1ccc(Oc2ncc(Br)cn2)c(C)c1 [Compound 49, N-[2-(acetylamino]benzoyl]-N'-[4-(5-bromo-2-pyrimidinyloxy)-3-methylphenyl]urea]",39%,59%,,
CCCC(=O)Nc1ccccc1C(=O)NC(=O)Nc1ccc(Oc2ncc(Br)cn2)c(C)c1 [Compound 50],,49%,150%,
CCCCCCCCC(=O)Nc1ccccc1C(=O)NC(=O)Nc1ccc(Oc2ncc(Br)cn2)c(C)c1 [Compound 51],,,184%,
CC(=O)N(C)c1ccccc1C(=O)NC(=O)Nc1ccc(Oc2ncc(Br)cn2)c(C)c1 [Compound 52],139%,,,ILS at 6.25 mg/kg (P-388 leukemia [3]; [7]): 39%
Cc1cc(NC(=O)NC(=O)c2ccccc2N(S(C)(=O)=O)S(C)(=O)=O)ccc1Oc1ncc(Br)cn1 [Compound 54],,,49%,

# Reference: US5102884A, “Substituted benzoylurea compounds or their salts, processes for their production and antitumour compositions containing them” (Ishihara Sangyo Kaisha Ltd., priority 1989, dated 1992)
